21 compounds from PubChem BioAssay (NCI) can be followed below.

Among the test systems are HS 578T breast; MDA-MB-435; OVCAR-4 ovarian.
What all share (test): growth of human tumour cells (NCI), 48 h

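Compound exposure: 48 hours, 5 concentrations, 96-well plates. Abbreviation: GI50, concentration required for 50% inhibition of growth. At the TGI there is no net growth.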 A value given as a limit tells only on which side of the number the result lay.

As to `CCOC(=O)/C(=C/CC/C(C)=C/CC/C(C)=C/CCc1ccoc1)CC(=O)N1CCCCC1`, in the assay on HS 578T breast, the GI50 was 5.07 µM and the TGI is 35.2 µM. Besides, in the assay with MDA-MB-435, the GI50 was 3.05 µM and the TGI is 10.9 µM.

Regarding `CCN(C(=O)N1CCN(c2cc3c(cc2F)c(=O)c(C(=O)O)cn3C2CC2)CC1)c1nc(-c2ccccc2)cs1`, the GI50 in the assay on HS 578T breast is 3.16 µM; in the assay on OVCAR-4 ovarian, 2.29 µM; with MDA-MB-435 it was 2.87 µM. Moreover, the TGI with HS 578T breast stood at 25.9 µM; in the assay with OVCAR-4 ovarian, 25.9 µM; in the assay with MDA-MB-435, 11.6 µM.

`Oc1ccc(NC(=S)Nc2ccccc2)cc1`: the GI50 in the assay with HS 578T breast, in the assay on OVCAR-4 ovarian and in the assay with MDA-MB-435 was above 100 µM each time. In addition, the TGI in the assay with HS 578T breast, in the assay with OVCAR-4 ovarian and in the assay with MDA-MB-435 was above 100 µM each time.

In the case of `O=C(Nc1ccc(OS(=O)(=O)c2ccc(F)cc2)cc1)C12CC3CC(CC(C3)C1)C2`, the values for the GI50 with HS 578T breast, in the assay on OVCAR-4 ovarian and with MDA-MB-435 were 5.9 µM, 4.38 µM and above 27.9 µM, respectively. For the same compound, the TGI in the assay with HS 578T breast is above 53.2 µM; in the assay on OVCAR-4 ovarian, 37.7 µM; with MDA-MB-435 it was above 100 µM.

Take `OCC#CCOCC#Cc1ccccc1C#CCOCC#CCO`: in the assay with HS 578T breast, the GI50 was above 100 µM and the TGI is above 100 µM. Besides, in the assay with MDA-MB-435, the GI50 was 53.3 µM and the TGI was above 100 µM.

`C=C1CCC2CC1C(C(=O)c1c[nH]c3ccccc13)=NC2(C)C` (stereo not drawn): the TGI with HS 578T breast, in the assay on OVCAR-4 ovarian and with MDA-MB-435 was above 100 µM in each case.

Regarding `NC(N)=NN=c1c(=O)c2ccccc2c1=O`, the GI50 in the assay on HS 578T breast was 10.1 µM; in the assay on OVCAR-4 ovarian, 12.6 µM; in the assay with MDA-MB-435, 1.95 µM. In addition, the TGI is above 100 µM with HS 578T breast, 25.2 µM with OVCAR-4 ovarian and 3.71 µM with MDA-MB-435.

For the compound `O=c1cc(-c2ccc(Cl)cc2)[nH]c2ccccc12`, the GI50 is 28.9 µM in the assay on HS 578T breast, above 100 µM in the assay with OVCAR-4 ovarian and 2.89 µM in the assay on MDA-MB-435. Moreover, the TGI is above 100 µM with HS 578T breast, above 100 µM in the assay on OVCAR-4 ovarian and 28.5 µM in the assay with MDA-MB-435.

For `O=C1Cc2c(-c3ccccc3)cc(-c3ccccc3)nc2-c2ccccc2N1`, the TGI in the assay with HS 578T breast is 19 µM; in the assay with MDA-MB-435 it was above 100 µM.

Turning to `C[C@@H](O)[C@@H](C)Oc1nc(Nc2ccc(S(=N)(=O)C3CC3)cc2)ncc1C(F)(F)F` (stereo partly drawn), the GI50 was 0.0313 µM with HS 578T breast, 0.0442 µM in the assay on OVCAR-4 ovarian and 0.0335 µM with MDA-MB-435. Also, the TGI with HS 578T breast was 7.96 µM; in the assay with OVCAR-4 ovarian, 26.9 µM; with MDA-MB-435, 1.22 µM.

Take `COC(=O)c1cc(-c2ccc3ccccc3c2)[nH]c(=O)c1C#N`: the TGI in the assay on HS 578T breast, with OVCAR-4 ovarian and in the assay on MDA-MB-435 was above 100 µM in each case.

For the compound `COc1ccc(C(=O)/C=C/c2sc(Cl)nc2Cl)cc1`, the GI50 in the assay with HS 578T breast was 3.29 µM; in the assay on OVCAR-4 ovarian, 7.28 µM; in the assay with MDA-MB-435 it was 3.11 µM. For the same compound, the TGI stood at 18.6 µM with HS 578T breast, 20.2 µM with OVCAR-4 ovarian and 11.4 µM with MDA-MB-435.

In the case of `CC(C)C[C@H](CC(=O)O)C(=O)N[C@@H](Cc1c[nH]c2ccccc12)C(=O)N[C@@H](C)c1ccccc1`, the GI50 in the assay on HS 578T breast, in the assay with OVCAR-4 ovarian and in the assay on MDA-MB-435 was above 25 µM in each case. Also, the TGI in the assay on HS 578T breast, with OVCAR-4 ovarian and in the assay with MDA-MB-435 was above 25 µM in each case.

In the case of `O=C(COc1ccc(/C=C2\Oc3ccc4ccccc4c3C2=O)cc1)c1ccc([N+](=O)[O-])cc1`, the GI50 is 18.5 µM with HS 578T breast, 2.14 µM with OVCAR-4 ovarian and 12.2 µM in the assay with MDA-MB-435. Besides, the TGI was determined as 57 µM in the assay with HS 578T breast, 8.87 µM in the assay with OVCAR-4 ovarian and 29.1 µM in the assay on MDA-MB-435.

Take `OCC1NC(COC2OC(CO)C(O)C(O)C2O)C(O)C(O)C1O` (stereo not drawn): the TGI in the assay on OVCAR-4 ovarian and in the assay with MDA-MB-435 was above 100 µM each time.

Turning to `N#C/C(=C\c1ccc(O)c(O)c1)C(=O)NCc1ccc(C(F)(F)F)cc1`, the GI50 in the assay with HS 578T breast was 12.6 µM; in the assay on OVCAR-4 ovarian it was 13.3 µM; with MDA-MB-435 it was 5.69 µM. Besides, the TGI in the assay with HS 578T breast was 46.9 µM; in the assay with OVCAR-4 ovarian, above 71.9 µM; in the assay on MDA-MB-435, 29.4 µM.

As for `CCn1cnc(C[C@H](NC(=O)[C@H](CCCCNC(=O)Nc2cc(C(F)(F)F)cc(C(F)(F)F)c2)NC(=O)Nc2cc(C(F)(F)F)cc(C(F)(F)F)c2)C(=O)OC)c1`, the GI50 is 4.49 µM with HS 578T breast, 3.51 µM in the assay on OVCAR-4 ovarian and 8.46 µM in the assay with MDA-MB-435. Also, the TGI in the assay on HS 578T breast, in the assay on OVCAR-4 ovarian and with MDA-MB-435 was above 10 µM throughout.

As to `COc1ccc(-c2nn(-c3cccc(Cl)c3)cc2/C=C2\NC(=S)N(c3ccc(Cl)cc3)C2=O)cc1`, the GI50 was 4.14 µM with HS 578T breast, 3.54 µM in the assay on OVCAR-4 ovarian and 7.38 µM in the assay on MDA-MB-435. Besides, the TGI was 24.1 µM with HS 578T breast, 7.45 µM in the assay with OVCAR-4 ovarian and above 25 µM in the assay with MDA-MB-435.

`Cc1nc2ccccn2c1NC(=O)NN1C(=O)CSC1c1ccc(Cl)cc1` (stereo not drawn): the GI50 in the assay with HS 578T breast, in the assay on OVCAR-4 ovarian and with MDA-MB-435 was above 100 µM throughout. For the same compound, the TGI with HS 578T breast, with OVCAR-4 ovarian and with MDA-MB-435 was above 100 µM throughout.

In the case of `Clc1ccc(-c2cc(-c3ccccc3)nc(N3CCN(CCCNc4ccnc5cc(Cl)ccc45)CC3)n2)cc1`, the GI50 with HS 578T breast was 1.86 µM; with OVCAR-4 ovarian it was 1.16 µM; in the assay with MDA-MB-435, 1.73 µM. Also, the results for the TGI in the assay with HS 578T breast, with OVCAR-4 ovarian and in the assay with MDA-MB-435 were 4.38 µM, 2.61 µM and 3.16 µM, respectively.

Turning to `Cc1cccc2c(C3=C(c4cn(C)c5ccccc45)C(=O)NC3=O)cn(C)c12`, the GI50 in the assay with HS 578T breast was 2.83 µM; in the assay with OVCAR-4 ovarian, 6.64 µM; in the assay on MDA-MB-435 it was 1.24 µM. For the same compound, the TGI in the assay on HS 578T breast was 17.3 µM; in the assay on OVCAR-4 ovarian, above 23.1 µM; in the assay with MDA-MB-435 it was above 25 µM.
